# Tests used:
# Experiment in all cases: Kinase Profiling (KINOMEscan)
# Format in all cases: binding
# [1] = target: 456 kinases (of these 395 non-mutant kinases) (Homo sapiens, UniProt O75582); conditions: 10 μM
# [2] = target: 456 kinases (of these 395 non-mutant kinases) (Homo sapiens, UniProt O75914); conditions: PAK3; 10 μM
# [3] = target: 456 kinases (of these 395 non-mutant kinases) (Homo sapiens, UniProt O95382); conditions: ASK2; 10 μM
# [4] = target: 456 kinases (of these 395 non-mutant kinases) (Homo sapiens, UniProt O96017); conditions: CHEK2; 10 μM
# [5] = target: 456 kinases (of these 395 non-mutant kinases) (Homo sapiens, UniProt P07949, V804L); conditions: RET(V804L); 10 μM
# [6] = target: 456 kinases (of these 395 non-mutant kinases) (Homo sapiens, UniProt P08581, Y1235D); conditions: MET(Y1235D); 10 μM
# [7] = target: 456 kinases (of these 395 non-mutant kinases) (Homo sapiens, UniProt P08922); conditions: ROS1; 10 μM
# [8] = target: 456 kinases (of these 395 non-mutant kinases) (Homo sapiens, UniProt P15735); conditions: PHKG2; 10 μM
# [9] = target: 456 kinases (of these 395 non-mutant kinases) (Homo sapiens, UniProt P16234); conditions: PDGFRA; 10 μM
# [10] = target: 456 kinases (of these 395 non-mutant kinases) (Homo sapiens, UniProt P29317); conditions: EPHA2; 10 μM
# [11] = target: 456 kinases (of these 395 non-mutant kinases) (Homo sapiens, UniProt P42336, I800L); conditions: PIK3CA(I800L); 10 μM
# [12] = target: 456 kinases (of these 395 non-mutant kinases) (Homo sapiens, UniProt P54646); conditions: AMPK-alpha2; 10 μM
# [13] = target: 456 kinases (of these 395 non-mutant kinases) (Homo sapiens, UniProt Q13164); conditions: ERK5; 10 μM
# [14] = target: 456 kinases (of these 395 non-mutant kinases) (Homo sapiens, UniProt Q13523); conditions: PRP4; 10 μM
# [15] = target: 456 kinases (of these 395 non-mutant kinases) (Homo sapiens, UniProt Q14012); conditions: CAMK1; 10 μM
# [16] = target: 456 kinases (of these 395 non-mutant kinases) (Homo sapiens, UniProt Q15349); conditions: 10 μM
# [17] = target: 456 kinases (of these 395 non-mutant kinases) (Homo sapiens, UniProt Q2M2I8); conditions: AAK1; 10 μM
# [18] = target: 456 kinases (of these 395 non-mutant kinases) (Homo sapiens, UniProt Q56UN5); conditions: YSK4; 10 μM
# [19] = target: 456 kinases (of these 395 non-mutant kinases) (Homo sapiens, UniProt Q5S007); conditions: LRRK2; 10 μM
# [20] = target: 456 kinases (of these 395 non-mutant kinases) (Homo sapiens, UniProt Q5VT25); conditions: MRCKA; 10 μM
# [21] = target: 456 kinases (of these 395 non-mutant kinases) (Homo sapiens, UniProt Q8N752); conditions: CSNK1A1L; 10 μM
# [22] = target: 456 kinases (of these 395 non-mutant kinases) (Homo sapiens, UniProt Q8NG66); conditions: NEK11; 10 μM
# [23] = target: 456 kinases (of these 395 non-mutant kinases) (Homo sapiens, UniProt Q8TDC3); conditions: BRSK1; 10 μM
# [24] = target: 456 kinases (of these 395 non-mutant kinases) (Homo sapiens, UniProt Q8WXR4); conditions: MYO3B; 10 μM
# [25] = target: 456 kinases (of these 395 non-mutant kinases) (Homo sapiens, UniProt Q99640); conditions: PKMYT1; 10 μM
# [26] = target: 456 kinases (of these 395 non-mutant kinases) (Homo sapiens, UniProt Q9H093); conditions: SNARK; 10 μM
# [27] = target: 456 kinases (of these 395 non-mutant kinases) (Homo sapiens, UniProt Q9H2G2); conditions: SLK; 10 μM
# [28] = target: 456 kinases (of these 395 non-mutant kinases) (Homo sapiens, UniProt Q9P1W9); conditions: PIM2; 10 μM
# [29] = target: 456 kinases (of these 395 non-mutant kinases) (Homo sapiens, UniProt Q9UF33); conditions: EPHA6; 10 μM
# [30] = target: 456 kinases (of these 395 non-mutant kinases) (Homo sapiens, UniProt Q9UKI8); conditions: TLK1; 10 μM
# [31] = target: 456 kinases (of these 395 non-mutant kinases) (Homo sapiens, UniProt Q9UPZ9); conditions: ICK; 10 μM
# [32] = target: 456 kinases (of these 395 non-mutant kinases) (Homo sapiens, UniProt Q9Y4K4); conditions: MAP4K5; 10 μM
# Sequence of 456 kinases (of these 395 non-mutant kinases) (Homo sapiens, UniProt P29317) (P29317 24-976 limits assumed, stated change not applied): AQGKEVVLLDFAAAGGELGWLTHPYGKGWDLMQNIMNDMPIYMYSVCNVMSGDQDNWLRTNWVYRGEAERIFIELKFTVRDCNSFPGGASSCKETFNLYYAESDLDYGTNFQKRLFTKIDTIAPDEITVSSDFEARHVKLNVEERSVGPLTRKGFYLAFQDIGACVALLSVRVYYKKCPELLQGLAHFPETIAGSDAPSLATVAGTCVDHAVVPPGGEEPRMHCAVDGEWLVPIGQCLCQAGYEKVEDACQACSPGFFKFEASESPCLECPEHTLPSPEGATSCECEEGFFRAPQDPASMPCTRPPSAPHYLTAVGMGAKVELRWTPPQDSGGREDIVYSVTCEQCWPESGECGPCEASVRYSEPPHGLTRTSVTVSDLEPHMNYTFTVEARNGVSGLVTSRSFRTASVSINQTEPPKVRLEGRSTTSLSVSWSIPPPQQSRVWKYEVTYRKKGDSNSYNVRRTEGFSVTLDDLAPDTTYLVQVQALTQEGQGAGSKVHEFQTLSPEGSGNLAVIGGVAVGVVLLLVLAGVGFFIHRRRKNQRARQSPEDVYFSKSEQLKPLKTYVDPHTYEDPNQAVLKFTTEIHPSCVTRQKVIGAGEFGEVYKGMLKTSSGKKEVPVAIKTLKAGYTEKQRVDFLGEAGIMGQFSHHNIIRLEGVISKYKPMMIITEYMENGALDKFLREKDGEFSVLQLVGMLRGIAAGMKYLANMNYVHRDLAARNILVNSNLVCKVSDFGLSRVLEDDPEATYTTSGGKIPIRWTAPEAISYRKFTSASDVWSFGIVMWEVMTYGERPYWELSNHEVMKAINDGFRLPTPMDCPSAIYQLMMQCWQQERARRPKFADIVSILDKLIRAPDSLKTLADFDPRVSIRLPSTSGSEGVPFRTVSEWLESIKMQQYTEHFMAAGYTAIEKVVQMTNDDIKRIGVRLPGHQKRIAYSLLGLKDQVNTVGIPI
# Sequence of 456 kinases (of these 395 non-mutant kinases) (Homo sapiens, UniProt P08922) (P08922 28-2347 limits assumed, change not shown): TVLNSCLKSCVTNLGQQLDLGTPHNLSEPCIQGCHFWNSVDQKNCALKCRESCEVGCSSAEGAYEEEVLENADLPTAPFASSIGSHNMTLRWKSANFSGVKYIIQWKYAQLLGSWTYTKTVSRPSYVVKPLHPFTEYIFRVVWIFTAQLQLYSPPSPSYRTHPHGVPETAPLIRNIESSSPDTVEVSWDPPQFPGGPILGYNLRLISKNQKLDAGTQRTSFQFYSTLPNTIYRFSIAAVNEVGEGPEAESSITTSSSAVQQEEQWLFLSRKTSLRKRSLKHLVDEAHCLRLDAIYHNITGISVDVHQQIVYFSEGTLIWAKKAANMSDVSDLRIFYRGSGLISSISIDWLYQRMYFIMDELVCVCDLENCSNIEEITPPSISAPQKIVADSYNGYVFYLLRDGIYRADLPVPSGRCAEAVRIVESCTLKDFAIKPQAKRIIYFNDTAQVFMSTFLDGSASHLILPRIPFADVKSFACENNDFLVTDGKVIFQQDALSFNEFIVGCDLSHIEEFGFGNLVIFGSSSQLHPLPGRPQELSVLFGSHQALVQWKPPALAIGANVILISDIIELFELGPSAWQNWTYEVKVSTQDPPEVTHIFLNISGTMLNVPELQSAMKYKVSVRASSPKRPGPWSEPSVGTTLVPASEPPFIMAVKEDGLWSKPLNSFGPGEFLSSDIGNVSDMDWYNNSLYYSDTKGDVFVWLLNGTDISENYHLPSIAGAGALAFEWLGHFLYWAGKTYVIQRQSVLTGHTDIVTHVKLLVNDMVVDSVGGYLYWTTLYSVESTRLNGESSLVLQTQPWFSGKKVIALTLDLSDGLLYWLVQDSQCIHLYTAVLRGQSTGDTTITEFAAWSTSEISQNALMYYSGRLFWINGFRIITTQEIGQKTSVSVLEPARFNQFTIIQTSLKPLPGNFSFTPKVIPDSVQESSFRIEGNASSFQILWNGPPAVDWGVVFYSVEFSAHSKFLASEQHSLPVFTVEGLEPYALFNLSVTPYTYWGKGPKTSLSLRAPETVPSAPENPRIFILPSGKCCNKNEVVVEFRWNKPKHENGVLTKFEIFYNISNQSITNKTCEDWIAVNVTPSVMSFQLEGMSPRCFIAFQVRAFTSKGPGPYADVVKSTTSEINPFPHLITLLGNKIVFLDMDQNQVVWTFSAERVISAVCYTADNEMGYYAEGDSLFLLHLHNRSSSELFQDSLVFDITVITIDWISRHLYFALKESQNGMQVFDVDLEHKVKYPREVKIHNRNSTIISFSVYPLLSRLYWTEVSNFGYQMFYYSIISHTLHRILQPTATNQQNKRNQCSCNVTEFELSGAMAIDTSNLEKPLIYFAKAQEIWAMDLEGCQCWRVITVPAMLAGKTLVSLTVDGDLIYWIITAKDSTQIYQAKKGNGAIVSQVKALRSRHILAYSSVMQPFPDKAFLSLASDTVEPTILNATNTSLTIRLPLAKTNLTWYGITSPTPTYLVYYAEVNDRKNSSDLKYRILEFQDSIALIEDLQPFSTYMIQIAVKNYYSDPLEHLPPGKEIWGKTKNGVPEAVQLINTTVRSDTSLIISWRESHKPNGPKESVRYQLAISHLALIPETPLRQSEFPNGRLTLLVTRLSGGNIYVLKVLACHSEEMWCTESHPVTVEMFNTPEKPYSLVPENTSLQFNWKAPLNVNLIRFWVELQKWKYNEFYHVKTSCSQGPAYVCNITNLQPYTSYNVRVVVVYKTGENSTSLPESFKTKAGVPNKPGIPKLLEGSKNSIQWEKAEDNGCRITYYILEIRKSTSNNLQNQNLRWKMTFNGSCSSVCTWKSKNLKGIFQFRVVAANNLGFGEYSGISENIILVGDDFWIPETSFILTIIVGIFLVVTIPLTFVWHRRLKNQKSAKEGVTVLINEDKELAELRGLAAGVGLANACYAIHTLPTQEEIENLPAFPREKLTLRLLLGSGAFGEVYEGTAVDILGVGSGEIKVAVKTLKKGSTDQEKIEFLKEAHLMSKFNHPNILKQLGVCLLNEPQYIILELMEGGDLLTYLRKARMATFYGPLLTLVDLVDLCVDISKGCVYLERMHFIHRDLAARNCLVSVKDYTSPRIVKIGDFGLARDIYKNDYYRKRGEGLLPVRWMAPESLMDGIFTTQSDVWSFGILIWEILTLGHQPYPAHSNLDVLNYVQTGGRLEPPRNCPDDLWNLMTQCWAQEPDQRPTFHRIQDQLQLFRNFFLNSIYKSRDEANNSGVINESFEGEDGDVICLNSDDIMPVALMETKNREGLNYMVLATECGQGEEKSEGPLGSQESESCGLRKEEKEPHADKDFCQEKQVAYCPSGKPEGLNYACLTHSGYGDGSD
# Sequence of 456 kinases (of these 395 non-mutant kinases) (Homo sapiens, UniProt Q13523) (Q13523 2-1007 limits assumed, change not shown): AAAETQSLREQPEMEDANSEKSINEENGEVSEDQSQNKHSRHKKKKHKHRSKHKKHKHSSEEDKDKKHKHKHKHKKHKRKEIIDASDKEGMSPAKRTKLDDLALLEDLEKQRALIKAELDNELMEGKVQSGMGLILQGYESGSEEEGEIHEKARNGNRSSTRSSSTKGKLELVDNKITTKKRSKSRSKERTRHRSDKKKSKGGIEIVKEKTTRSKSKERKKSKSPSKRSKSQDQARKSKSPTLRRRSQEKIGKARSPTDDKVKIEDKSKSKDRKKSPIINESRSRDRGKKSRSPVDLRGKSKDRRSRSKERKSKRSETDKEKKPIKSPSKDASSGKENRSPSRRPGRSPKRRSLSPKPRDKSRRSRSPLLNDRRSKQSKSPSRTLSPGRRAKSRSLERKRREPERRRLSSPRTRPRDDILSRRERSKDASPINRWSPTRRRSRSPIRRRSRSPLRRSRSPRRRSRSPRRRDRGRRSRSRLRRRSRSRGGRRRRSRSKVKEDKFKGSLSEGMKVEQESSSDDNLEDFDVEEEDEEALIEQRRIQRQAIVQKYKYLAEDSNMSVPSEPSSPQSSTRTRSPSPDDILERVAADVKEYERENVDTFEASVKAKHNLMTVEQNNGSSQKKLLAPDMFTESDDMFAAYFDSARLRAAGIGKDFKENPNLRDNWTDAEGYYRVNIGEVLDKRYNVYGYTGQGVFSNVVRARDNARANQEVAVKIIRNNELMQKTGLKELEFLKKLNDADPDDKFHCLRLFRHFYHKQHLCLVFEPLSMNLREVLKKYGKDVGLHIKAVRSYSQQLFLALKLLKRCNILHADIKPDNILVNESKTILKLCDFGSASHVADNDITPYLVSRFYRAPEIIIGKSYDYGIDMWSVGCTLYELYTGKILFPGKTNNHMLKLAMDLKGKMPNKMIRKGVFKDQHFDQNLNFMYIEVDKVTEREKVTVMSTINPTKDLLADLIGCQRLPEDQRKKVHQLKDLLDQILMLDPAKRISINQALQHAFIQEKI
# Sequence of 456 kinases (of these 395 non-mutant kinases) (Homo sapiens, UniProt Q13164) (Q13164 2-816 limits assumed, change not shown): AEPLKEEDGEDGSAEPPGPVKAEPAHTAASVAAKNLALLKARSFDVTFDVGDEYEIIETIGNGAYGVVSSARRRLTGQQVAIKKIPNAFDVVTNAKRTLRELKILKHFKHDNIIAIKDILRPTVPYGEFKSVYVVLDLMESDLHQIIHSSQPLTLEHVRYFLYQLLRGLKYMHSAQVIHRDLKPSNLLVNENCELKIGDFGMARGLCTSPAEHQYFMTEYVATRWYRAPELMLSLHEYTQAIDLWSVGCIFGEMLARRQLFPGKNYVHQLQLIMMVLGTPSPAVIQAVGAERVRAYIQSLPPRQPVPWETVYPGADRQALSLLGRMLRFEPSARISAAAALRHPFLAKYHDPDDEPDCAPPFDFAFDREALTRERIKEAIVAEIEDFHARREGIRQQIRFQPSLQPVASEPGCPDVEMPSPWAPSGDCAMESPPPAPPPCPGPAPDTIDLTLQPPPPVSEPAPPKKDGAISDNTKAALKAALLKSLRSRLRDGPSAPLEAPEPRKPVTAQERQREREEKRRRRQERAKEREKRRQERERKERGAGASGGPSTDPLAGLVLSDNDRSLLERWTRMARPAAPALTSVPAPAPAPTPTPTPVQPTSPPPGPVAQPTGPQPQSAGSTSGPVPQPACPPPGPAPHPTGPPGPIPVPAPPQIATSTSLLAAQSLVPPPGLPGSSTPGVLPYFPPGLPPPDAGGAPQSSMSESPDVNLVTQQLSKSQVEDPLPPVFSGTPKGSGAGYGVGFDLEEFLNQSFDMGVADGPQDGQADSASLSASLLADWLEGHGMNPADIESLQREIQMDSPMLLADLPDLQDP
structure (smiles),measurement,setting,value
"CCc1ccccc1NC(=O)c1c(C)nsc1Nc1cnc2cc(F)ccc2n1 [Example 20, N-(2-Ethylphenyl)-5-[(6-fluoroquinoxalin-2-yl)amino]-3-methyl-1,2-thiazole-4-carboxamide]",% Ctrl @ 10 μM,[1]; RPS6KA5(Kin.Dom.1-N-terminal),100 % Ctrl
same,% Ctrl @ 10 μM,[1]; RPS6KA5(Kin.Dom.2-C-terminal),100 % Ctrl
same,% Ctrl @ 10 μM,[2],100 % Ctrl
same,% Ctrl @ 10 μM,[3],73 % Ctrl
same,% Ctrl @ 10 μM,[4],100 % Ctrl
same,% Ctrl @ 10 μM,[5],89 % Ctrl
same,% Ctrl @ 10 μM,[6],77 % Ctrl
same,% Ctrl @ 10 μM,[7],89 % Ctrl
same,% Ctrl @ 10 μM,[8],99 % Ctrl
same,% Ctrl @ 10 μM,[9],100 % Ctrl
same,% Ctrl @ 10 μM,[10],88 % Ctrl
same,% Ctrl @ 10 μM,[11],93 % Ctrl
same,% Ctrl @ 10 μM,[12],100 % Ctrl
same,% Ctrl @ 10 μM,[13],100 % Ctrl
same,% Ctrl @ 10 μM,[14],87 % Ctrl
same,% Ctrl @ 10 μM,[15],68 % Ctrl
same,% Ctrl @ 10 μM,[16]; RSK3(Kin.Dom.1-N-terminal),72 % Ctrl
same,% Ctrl @ 10 μM,[16]; RSK3(Kin.Dom.2-C-terminal),79 % Ctrl
same,% Ctrl @ 10 μM,[17],68 % Ctrl
same,% Ctrl @ 10 μM,[18],100 % Ctrl
same,% Ctrl @ 10 μM,[19],95 % Ctrl
same,% Ctrl @ 10 μM,[20],92 % Ctrl
same,% Ctrl @ 10 μM,[21],100 % Ctrl
same,% Ctrl @ 10 μM,[22],92 % Ctrl
same,% Ctrl @ 10 μM,[23],90 % Ctrl
same,% Ctrl @ 10 μM,[24],100 % Ctrl
same,% Ctrl @ 10 μM,[25],100 % Ctrl
same,% Ctrl @ 10 μM,[26],100 % Ctrl
same,% Ctrl @ 10 μM,[27],95 % Ctrl
same,% Ctrl @ 10 μM,[28],100 % Ctrl
same,% Ctrl @ 10 μM,[29],85 % Ctrl
same,% Ctrl @ 10 μM,[30],84 % Ctrl
same,% Ctrl @ 10 μM,[31],100 % Ctrl
same,% Ctrl @ 10 μM,[32],89 % Ctrl
